Test results: patent US11524966B1 (Valo Early Discovery, Inc., priority 2017, dated 2022)

Target: T1, USP28 (USP28-5(1-1077)-TEV-6*His; LifeSensors) (Homo sapiens, UniProt Q96RU2)
T1 construct: construct USP28 (USP28-5(1-1077)-TEV-6*His; LifeSensors); TEV cleavage site (C); 6xHis (C); purchased LifeSensors
T1 sequence (Q96RU2 1-1077): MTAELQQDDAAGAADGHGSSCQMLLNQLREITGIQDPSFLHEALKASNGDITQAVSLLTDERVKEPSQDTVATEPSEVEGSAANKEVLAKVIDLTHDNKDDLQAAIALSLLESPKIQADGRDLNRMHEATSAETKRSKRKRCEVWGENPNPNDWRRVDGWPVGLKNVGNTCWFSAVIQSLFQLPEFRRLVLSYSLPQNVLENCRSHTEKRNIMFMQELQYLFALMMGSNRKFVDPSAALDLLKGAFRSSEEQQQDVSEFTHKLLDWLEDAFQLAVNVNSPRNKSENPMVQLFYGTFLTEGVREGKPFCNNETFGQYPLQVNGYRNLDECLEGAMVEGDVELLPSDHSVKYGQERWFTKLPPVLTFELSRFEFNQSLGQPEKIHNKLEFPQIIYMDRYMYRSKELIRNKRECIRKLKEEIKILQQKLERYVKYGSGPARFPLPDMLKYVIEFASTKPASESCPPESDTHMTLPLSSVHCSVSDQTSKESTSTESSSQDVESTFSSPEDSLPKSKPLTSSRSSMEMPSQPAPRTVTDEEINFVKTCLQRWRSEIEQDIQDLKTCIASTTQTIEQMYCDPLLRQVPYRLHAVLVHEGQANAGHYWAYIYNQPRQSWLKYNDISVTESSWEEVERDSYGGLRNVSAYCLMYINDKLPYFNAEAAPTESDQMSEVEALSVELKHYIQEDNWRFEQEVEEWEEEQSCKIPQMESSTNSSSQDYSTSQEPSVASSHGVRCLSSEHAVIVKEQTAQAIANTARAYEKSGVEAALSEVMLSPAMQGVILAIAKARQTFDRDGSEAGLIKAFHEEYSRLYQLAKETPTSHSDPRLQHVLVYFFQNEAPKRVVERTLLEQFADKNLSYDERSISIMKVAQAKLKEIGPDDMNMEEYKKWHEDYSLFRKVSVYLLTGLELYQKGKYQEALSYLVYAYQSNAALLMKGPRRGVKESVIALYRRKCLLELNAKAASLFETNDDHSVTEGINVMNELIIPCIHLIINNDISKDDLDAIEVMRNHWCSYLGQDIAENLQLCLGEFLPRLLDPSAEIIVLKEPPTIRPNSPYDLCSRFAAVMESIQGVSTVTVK
Assay: Ubiquitin-Rhodamine 110 Assay for USP28 Activity, Example A-1(b)
Format: biochemical
Settings: Ub-Rh110 assay, Example A-1(b)
Procedure, shortened: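 Single-point screening used 10 μM compound with 90 min room-temperature incubation; follow-up dose-responses (25 μM top, 3-fold) used 75 pM USP28 1-1077 construct, 30 min compound preincubation, 25 nM Ub-Rh110, 20 min reaction, citric acid quench. Rh110 fluorescence normalised to no-enzyme and DMSO controls; IC50 from 4-parameter logistic fit.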

Row | SMILES | USP28 A-1(b) IC50 range
1 | Cc1cc(C)c2c(N)c(C(=O)N[C@H]3COc4cc(N5CCNCC5)ccc4C3)sc2n1 [Example 2-17, (R)-3-amino-4,6-dimethyl-N-(7-(piperazin-1-yl)chroman-3-yl)thieno[2,3-b]pyridine-2-carboxamide] | +++ (0.05-0.2 μM)
2 | Cc1ccc2c(N)c(C(=O)N[C@H]3COc4cc(N5CC6CC(C5)N6)cc(F)c4C3)sc2n1 (single isomer, unassigned) [Example 1-42] | + (>2 μM)
3 | Cc1cnc2c(N)c(C(=O)N[C@H]3CCc4cc(N5CCNCC5)c(C)cc4C3)sc2n1 (single isomer, unassigned) [Example 2-34] | ++ (0.2-2 μM)
4 | Nc1c(C(=O)N[C@@H]2COc3cc(N4CC5CCC(C4)N5)ccc3C2)sc2ncc(F)cc12 (single isomer, unassigned) [Example 1-18] | + (>2 μM)
5 | Cc1ccc2c(N)c(C(=O)N[C@H]3COc4cc(N5CCNCC5)c(OC(F)(F)F)cc4C3)sc2n1 (single isomer, unassigned) [Example 1-31] | + (>2 μM)
6 | Cc1ccc2c(N)c(C(=O)N[C@H]3COc4c(ccc(N5CCNCC5)c4F)C3)sc2n1 [Example 1-33, (R)-3-amino-N-(8-fluoro-7-(piperazin-1-yl)chroman-3-yl)-6-methylthieno[2,3-b]pyridine-2-carboxamide] | +++ (0.05-0.2 μM)
7 | Cc1ccc2c(N)c(C(=O)N[C@H]3COc4cc(N5CCN[C@H](C)[C@H]5C)ccc4C3)sc2n1 (single isomer, unassigned) [Example 1-11] | ++++ (0.001-0.05 μM)
8 | O=C(N[C@H]1COc2cc(N3CC4CCC(C3)N4)ccc2C1)c1ccc(NCc2ccccc2)nc1 [Example 2-25, N-((3R)-7-(3,8-diazabicyclo[3.2.1]octan-3-yl)chroman-3-yl)-6-(benzylamino)nicotinamide] | ++ (0.2-2 μM)
9 | Cc1ccc2c(N)c(C(=O)N[C@@H]3COc4cc(N5CCN[C@@H](C)[C@@H]5C)ccc4C3)sc2n1 (single isomer, unassigned) [Example 1-14] | ++ (0.2-2 μM)
10 | Cc1ccc2c(N)c(C(=O)N[C@@H]3COc4cc(N5CC6CC(C5)N6)ccc4C3)sc2n1 [Example 2-3, N-((3S)-7-(3,6-diazabicyclo[3.1.1]heptan-3-yl)chroman-3-yl)-3-amino-6-methylthieno[2,3-b]pyridine-2-carboxamide] | + (>2 μM)
11 | Cc1ccc2c(N)c(C(=O)N[C@@H]3COc4cc(N5CC6CCCC(C5)N6)ccc4C3)sc2n1 (single isomer, unassigned) [Example 1-6] | ++ (0.2-2 μM)
12 | Cc1ccc2c(N)c(C(=O)N[C@@H]3COc4cc(N5CC6CCC(C5)N6)ccc4C3)sc2n1 (single isomer, unassigned) [Example 1-4] | ++ (0.2-2 μM)
13 | CCn1ccc2cc(C(=O)N[C@H]3COc4cc(N5CC6CCCC(C5)N6)ccc4C3)nnc21 [Example 2-29, N-((3R)-7-(3,9-diazabicyclo[3.3.1]nonan-3-yl)chroman-3-yl)-7-ethyl-7H-pyrrolo[2,3-c]pyridazine-3-carboxamide] | ++ (0.2-2 μM)
14 | Cc1cnc2c(N)c(C(=O)N[C@@H]3COc4cc(N5CCNCC5)ccc4C3)sc2n1 (single isomer, unassigned) [Example 1-22] | + (>2 μM)
15 | Cc1ccc2c(N)c(C(=O)N[C@H]3COc4cc(N5CC6CCCC(C5)N6)ccc4C3)sc2n1 (single isomer, unassigned) [Example 1-5] | ++++ (0.001-0.05 μM)
16 | Cc1nc2sc(C(=O)N[C@H]3COc4cc(N5CC6CCC(C5)N6)ccc4C3)c(N)c2s1 [Example 1-23, N-((3R)-7-(3,8-diazabicyclo[3.2.1]octan-3-yl)chroman-3-yl)-6-amino-2-methylthieno[2,3-d]thiazole-5-carboxamide] | ++ (0.2-2 μM)
17 | Cc1ccc2c(N)c(C(=O)N[C@H]3COc4cc(N5CCN[C@H](C)C5)ccc4C3)sc2n1 [Example 2-9, 3-amino-6-methyl-N-((R)-7-((R)-3-methylpiperazin-1-yl)chroman-3-yl)thieno[2,3-b]pyridine-2-carboxamide] | ++ (0.2-2 μM)
18 | Cc1ccc2c(N)c(C(=O)N[C@@H]3COc4cc(N5CC6CCC(C5)N6)cc(F)c4C3)sc2n1 (single isomer, unassigned) [Example 1-30] | + (>2 μM)
19 | CCn1ccc2cc(C(=O)N[C@@H]3COc4cc(N5CC6CCC(C5)N6)ccc4C3)cnc21 (single isomer, unassigned) [Example 1-27] | + (>2 μM)
20 | Cc1ccc2c(N)c(C(=O)N[C@H]3COc4cc(N5CC6CNCC(C5)C6(F)F)ccc4C3)sc2n1 [Example 2-1, 3-Amino-N-((3R)-7-(9,9-difluoro-3,7-diazabicyclo[3.3.1]nonan-3-yl)chroman-3-yl)-6-methylthieno[2,3-b]pyridine-2-carboxamide] | ++++ (0.001-0.05 μM)
21 | Cc1ccc2c(N)c(C(=O)N[C@H]3COc4cc(N5CC6CC(C5)N6)ccc4C3)sc2n1 [Example 2-2, N-((3R)-7-(3,6-diazabicyclo[3.1.1]heptan-3-yl)chroman-3-yl)-3-amino-6-methylthieno[2,3-b]pyridine-2-carboxamide] | +++ (0.05-0.2 μM)
22 | Cc1nc2sc(C(=O)N[C@@H]3COc4cc(N5CCNCC5)ccc4C3)c(N)c2s1 [Example 1-26, (S)-6-amino-2-methyl-N-(7-(piperazin-1-yl)chroman-3-yl)thieno[2,3-d]thiazole-5-carboxamide] | + (>2 μM)
23 | Cc1nc2sc(C(=O)N[C@H]3COc4cc(N5CCNCC5)ccc4C3)c(N)c2s1 [Example 1-25, (R)-6-amino-2-methyl-N-(7-(piperazin-1-yl)chroman-3-yl)thieno[2,3-d]thiazole-5-carboxamide] | ++ (0.2-2 μM)
24 | Cc1nc2sc(C(=O)N[C@H]3COc4cc(N5CCNCC5)ccc4C3)c(N)c2cc1F (single isomer, unassigned) [Example 1-15] | +++ (0.05-0.2 μM)
25 | Cc1nc2sc(C(=O)N[C@H]3COc4cc(N5CC6CC(C5)N6)ccc4C3)c(N)c2s1 [Example 2-26, N-((3R)-7-(3,6-diazabicyclo[3.1.1]heptan-3-yl)chroman-3-yl)-6-amino-2-methylthieno[2,3-d]thiazole-5-carboxamide] | ++ (0.2-2 μM)
26 | Cc1nc2sc(C(=O)N[C@@H]3COc4cc(N5CC6CCC(C5)N6)ccc4C3)c(N)c2s1 [Example 1-24, N-((3S)-7-(3,8-diazabicyclo[3.2.1]octan-3-yl)chroman-3-yl)-6-amino-2-methylthieno[2,3-d]thiazole-5-carboxamide] | + (>2 μM)
27 | Cc1cc(C(F)(F)F)c2c(N)c(C(=O)N[C@H]3COc4cc(N5CC6CNCC(C5)C6(F)F)ccc4C3)sc2n1 [Example 2-22, 3-amino-N-((3R)-7-(9,9-difluoro-3,7-diazabicyclo[3.3.1]nonan-3-yl)chroman-3-yl)-6-methyl-4-(trifluoromethyl)thieno[2,3-b]pyridine-2-carboxamide] | ++++ (0.001-0.05 μM)
28 | Cc1ccc2c(N)c(C(=O)N[C@H]3COc4cc(N5CCNCC5)ccc4C3)sc2n1 (single isomer, unassigned) [Example 1-1] | +++ (0.05-0.2 μM)
29 | Nc1c(C(=O)N[C@H]2COc3cc(N4CC5CCC(C4)N5)ccc3C2)sc2ncc(F)cc12 (single isomer, unassigned) [Example 1-17] | ++ (0.2-2 μM)
